Reference: patent US20050101595A1, “N-containing cycloalkyl-substituted amino-thiazole derivatives and pharmaceutical compositions for inhibiting cell proliferation and methods for their use” (PFIZER INC., priority 2003, published 2005)
Counter-ions that a name gives are not always drawn. Like-named read-outs stand apart in the source and are kept apart here.

What was measured:
[1] = target: human CDK4 and genetically truncated (1-264) cyclin D3 (Homo sapiens, UniProt P11802); experiment: Inhibition of CDK4/Cyclin D Retinoblastoma Kinase Activity; type: biochemical; settings: for Ki: apparent Ki, CDK4/truncated cyclin D3, Rb fragment substrate, 25 μM ATP
Outline: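 Read-out: 32P/33P incorporation into Rb fragment (386-928) captured on nitrocellulose, phosphorimager. Enzyme 5 nM CDK4/cyclin D3(1-264) from insect cells; ATP 25 μM, pH 7.4, 30 °C, 20 min (60 min for tight binders). Ki from competitive fits.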

[2] = target: CDK2/Cyclin A (Homo sapiens, UniProt P24941); experiment: Inhibition of CDK2/Cyclin A Retinoblastoma Kinase Activity; type: biochemical; settings: for Ki: apparent Ki, CDK2/proteolyzed cyclin A, Rb fragment substrate, 25 μM ATP
Outline: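 Human CDK2, baculovirus/insect-cell expressed, complexed with proteolyzed cyclin A (10 nM or 19 nM CDK2) phosphorylates an Rb fragment with 25 μM [32P/33P]ATP at pH 7.4, 30° C, for 60 or 75 minutes under initial-rate conditions. Filter-captured radioactivity is read by phosphorimager; apparent Ki from competitive-inhibition fits.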

[3] = test system: HCT-116 cell line; experiment: Inhibition of cell growth, tetrazolium salt (MTT) assay; type: cell-based; settings: for IC50: Homo sapiens, HCT-116, 120 h, MTT, three to five days, read-out: HCT-116 IC50; for HCT-116 % Inhibition at 0.25 μM: 0.25 μM compound
Outline: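 First, cells were seeded in McCoy's 5A medium and held 4 h. Next, inhibitor concentrations in 0.5% (v/v) DMSO were applied for three to five days at 37° C, 5% CO2. Finally, after 4 h with 0.2 mg/mL MTT and medium removal, solubilized formazan was measured at 540 nm.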

[4] = 0.1 μM compound, HCT-116, Table 4
[5] = 0.1 μM compound, HCT-116, Table 3

human CDK4 and genetically truncated (1-264) cyclin D3, sequence (P11802 whole entry, the tested form may be a part): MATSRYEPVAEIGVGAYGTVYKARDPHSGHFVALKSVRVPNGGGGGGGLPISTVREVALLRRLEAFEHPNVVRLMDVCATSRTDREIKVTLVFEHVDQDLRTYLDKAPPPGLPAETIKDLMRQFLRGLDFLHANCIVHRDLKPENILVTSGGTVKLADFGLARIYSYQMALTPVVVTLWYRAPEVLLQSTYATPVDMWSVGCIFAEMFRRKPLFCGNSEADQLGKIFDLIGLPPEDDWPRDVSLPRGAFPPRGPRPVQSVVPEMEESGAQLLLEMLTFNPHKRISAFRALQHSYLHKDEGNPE
human CDK4 and genetically truncated (1-264) cyclin D3, sequence (P30281 1-264 partner): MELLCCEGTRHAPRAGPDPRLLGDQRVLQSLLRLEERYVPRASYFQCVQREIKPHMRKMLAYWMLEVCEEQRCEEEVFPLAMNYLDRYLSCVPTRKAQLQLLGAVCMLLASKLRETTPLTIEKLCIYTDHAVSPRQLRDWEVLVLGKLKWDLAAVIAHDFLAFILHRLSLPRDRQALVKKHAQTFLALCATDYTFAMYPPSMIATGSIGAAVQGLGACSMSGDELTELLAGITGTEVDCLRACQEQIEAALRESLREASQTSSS

Compound: CSc1ccc(C(=O)N2CCC(Nc3nc(N)c(C(=O)c4c(F)cccc4F)s3)CC2)cc1 [Example R150]
- CDK4 % Inhibition at 0.03 μM ([1]; at 0.03 μM): 62%
- CDK2 % Inhibition at 0.03 μM ([2]; at 0.03 μM): 40%
- HCT-116 % Inhibition at 0.1 μM ([3]; HCT-116 cells, at 0.1 μM): 2%
- HCT-116 5 Inhibition at 0.25 μM ([3]; HCT-116 cells): 39

Compound: CN1CCN(c2ccc(S(=O)(=O)N3CCC(Nc4nc(N)c(C(=O)c5c(F)cccc5F)s4)CC3)cn2)CC1 [Example G5, 1-(4-Amino-2-{1-[6-(4-methyl-piperazin-1-yl)-pyridine-3-sulfonyl]-piperidin-4-ylamino}-thiazol-5-yl)-1-(2,6-difluoro-phenyl)-methanone]
- Ki [1]: 1.3 nM
- Ki [2]: 1.3 nM
- IC50 ([3]; first HCT-116 column (c4)): 29 nM
- IC50 ([3]; second HCT-116 column (c5)): > 500 nM

Compound: CN(C)CCN(C)Cc1ccc(S(=O)(=O)N2CCC(Nc3nc(N)c(C(=O)c4c(F)cccc4F)s3)CC2)cc1 [Example J9, 1-{4-Amino-2-[1-(4-{[(2-dimethylamino-ethyl)-methyl-amino]-methyl}-benzenesulfonyl)-piperidin-4-ylamino]-thiazol-5-yl}-1-(2,6-difluoro-phenyl)-methanone Hydrochloride Salt.]
- Ki [1]: 0.85 nM
- Ki [2]: 2.4 nM
- IC50 ([3]; first HCT-116 column (c4)): 130 nM
- IC50 ([3]; second HCT-116 column (c5)): 320 nM

Compound: CC(Oc1ccccc1)C(=O)N1CCC(Nc2nc(N)c(C(=O)c3c(F)cccc3F)s2)CC1 (stereo not shown) [Example R9]
- CDK4 % Inhibition at 0.03 μM ([1]; at 0.03 μM): 19%
- CDK2 % Inhibition at 0.03 μM ([2]; at 0.03 μM): −15%
- HCT-116 % Inhibition at 0.1 μM ([3]; HCT-116 cells, at 0.1 μM): 5%
- HCT-116 5 Inhibition at 0.25 μM ([3]; HCT-116 cells): 37

Compound: Cc1cccc(C(=O)N2CCC(Nc3nc(N)c(C(=O)c4c(F)cccc4F)s3)CC2)c1 [Example Q25]
- CDK4 % Inhibition at 0.03 μM ([1]; 0.03 μM compound, Table 4): 60%
- CDK2 % Inhibition at 0.03 μM ([2]; 0.03 μM compound, Table 4): 30%
- HCT-116 % Inhibition at 0.1 μM [3, 4]: 31%
- HCT-116 % Inhibition at 0.25 μM ([3]; HCT-116, Table 4): 85%

Compound: Nc1nc(NC2CCN(C(=O)c3ccno3)CC2)sc1C(=O)c1c(F)cccc1F [Example R46]
- CDK4 % Inhibition at 0.03 μM ([1]; at 0.03 μM): 83%
- CDK2 % Inhibition at 0.03 μM ([2]; at 0.03 μM): 71%
- HCT-116 % Inhibition at 0.1 μM ([3]; HCT-116 cells, at 0.1 μM): 0.47%
- HCT-116 5 Inhibition at 0.25 μM ([3]; HCT-116 cells): 37

Compound: Nc1nc(NC2CCN(S(=O)(=O)c3ccc(-c4ncc[nH]4)nc3)CC2)sc1C(=O)c1c(F)cccc1F [Example I1, 1-(4-Amino-2-{1-[6-(1H-imidazol-2-yl)-pyridine-3-sulfonyl]-piperidin-4-ylamino}-thiazol-5-yl)-1-(2,6-difluoro-phenyl)-methanone Hydrochloride]
- Ki [1]: 0.56 nM
- Ki [2]: 0.26 nM
- IC50 ([3]; first HCT-116 column (c4)): 300 nM
- IC50 ([3]; second HCT-116 column (c5)): 500 nM

Compound: COC(=O)c1ccccc1NC(=O)N1CCC(Nc2nc(N)c(C(=O)c3c(F)cccc3F)s2)CC1 [Example O39]
- CDK4 % Inhibition at 0.03 μM ([1]; 0.03 μM compound, Table 2): 13%
- CDK2 % Inhibition At 0.03 μM ([2]; 0.03 μM compound, Table 2): 32%
- HCT-116 % Inhibition at 0.25 μM ([3]; HCT-116, Table 2): 27%

Compound: N#Cc1ccc(S(=O)(=O)N2CCC(Nc3nc(N)c(C(=O)c4c(F)cccc4F)s3)CC2)c(Cl)c1 [Example P71]
- CDK4 % Inhibition at 0.03 μM ([1]; 0.03 μM compound, Table 3): 52%
- CDK2 % Inhibition at 0.03 μM ([2]; 0.03 μM compound, Table 3): 57%
- HCT-116 % Inhibition at 0.1 μM [3, 5]: 13%
- HCT-116 % Inhibition at 0.25 μM ([3]; HCT-116, Table 3): 21%

Compound: CN(C)CCOc1ccc(S(=O)(=O)N2CCC(Nc3nc(N)c(C(=O)c4c(F)cccc4F)s3)CC2)cn1 [Example H3, 1-(4-Amino-2-{1-[6-(2-dimethylamino-ethoxy)-pyridine-3-sulfonyl]-piperidin-4-ylamino}-thiazol-5-yl)-1-(2,6-difluoro-phenyl)-methanone Hydrochloride]
- Ki [1]: 0.67 nM
- Ki [2]: 1.8 nM
- IC50 ([3]; first HCT-116 column (c4)): 51 nM
- IC50 ([3]; second HCT-116 column (c5)): 320 nM

Compound: COC(=O)CCCCC(=O)N1CCC(Nc2nc(N)c(C(=O)c3c(F)cccc3F)s2)CC1 [Example R4]
- CDK4 % Inhibition at 0.03 μM ([1]; at 0.03 μM): 32%
- CDK2 % Inhibition at 0.03 μM ([2]; at 0.03 μM): −5%
- HCT-116 % Inhibition at 0.1 μM ([3]; HCT-116 cells, at 0.1 μM): 3%
- HCT-116 5 Inhibition at 0.25 μM ([3]; HCT-116 cells): 47

Compound: CC(C)(C)c1cc(C(=O)N2CCC(Nc3nc(N)c(C(=O)c4c(F)cccc4F)s3)CC2)n(Cc2ccccc2)n1 [Example R58]
- CDK4 % Inhibition at 0.03 μM ([1]; at 0.03 μM): 72%
- CDK2 % Inhibition at 0.03 μM ([2]; at 0.03 μM): 41%
- HCT-116 % Inhibition at 0.1 μM ([3]; HCT-116 cells, at 0.1 μM): 5%
- HCT-116 5 Inhibition at 0.25 μM ([3]; HCT-116 cells): 44

Compound: N#Cc1cccc(C(=O)N2CCC(Nc3nc(N)c(C(=O)c4c(F)cccc4F)s3)CC2)c1 [Example Q77]
- CDK4 % Inhibition at 0.03 μM ([1]; 0.03 μM compound, Table 4): 72%
- CDK2 % Inhibition at 0.03 μM ([2]; 0.03 μM compound, Table 4): 44%
- HCT-116 % Inhibition at 0.1 μM [3, 4]: 8%
- HCT-116 % Inhibition at 0.25 μM ([3]; HCT-116, Table 4): 33%

Compound: Nc1nc(NC2CCN(C(=S)Oc3ccccc3)CC2)sc1C(=O)c1c(F)cccc1F [Example C6, 4-[4-Amino-5-(2,6-difluoro-benzoyl)-thiazol-2-ylamino]-piperidine-1-carbothioic Acid O-Phenyl Ester]
- Ki [1]: 7.9 nM
- Ki [2]: 6.1 nM
- IC50 ([3]; first HCT-116 column (c4)): 220 nM
- IC50 ([3]; second HCT-116 column (c5)): 900 nM

Compound: Nc1nc(NC2CCN(C(=O)c3ccccc3F)CC2)sc1C(=O)c1c(F)cccc1F [Example R104]
- CDK4 % Inhibition at 0.03 μM ([1]; at 0.03 μM): −8%
- CDK2 % Inhibition at 0.03 μM ([2]; at 0.03 μM): 5%
- HCT-116 % Inhibition at 0.1 μM ([3]; HCT-116 cells, at 0.1 μM): 0%
- HCT-116 5 Inhibition at 0.25 μM ([3]; HCT-116 cells): 38

Compound: COC(=O)c1ccc(OC(=O)N2CCC(Nc3nc(N)c(C(=O)c4c(F)cccc4F)s3)CC2)cc1 [Example Q87]
- CDK4 % Inhibition at 0.03 μM ([1]; 0.03 μM compound, Table 4): 77%
- CDK2 % Inhibition at 0.03 μM ([2]; 0.03 μM compound, Table 4): 54%
- HCT-116 % Inhibition at 0.1 μM [3, 4]: 4%
- HCT-116 % Inhibition at 0.25 μM ([3]; HCT-116, Table 4): 37%

Compound: Nc1nc(NC2CCN(S(=O)(=O)c3ccc(Oc4ccccc4)cc3)CC2)sc1C(=O)c1c(F)cccc1F [Example P84]
- CDK4 % Inhibition at 0.03 μM ([1]; 0.03 μM compound, Table 3): 38%
- CDK2 % Inhibition at 0.03 μM ([2]; 0.03 μM compound, Table 3): 28%
- HCT-116 % Inhibition at 0.1 μM [3, 5]: 10%
- HCT-116 % Inhibition at 0.25 μM ([3]; HCT-116, Table 3): 26%

Compound: CCCCC(C)C(=O)N1CCC(Nc2nc(N)c(C(=O)c3c(F)cccc3F)s2)CC1 (stereo not shown) [Example R167]
- CDK4 % Inhibition at 0.03 μM ([1]; at 0.03 μM): 11%
- CDK2 % Inhibition at 0.03 μM ([2]; at 0.03 μM): −2%
- HCT-116 % Inhibition at 0.1 μM ([3]; HCT-116 cells, at 0.1 μM): 0%
- HCT-116 5 Inhibition at 0.25 μM ([3]; HCT-116 cells): 42

Compound: Nc1nc(NC2CCN(C(=O)c3ccccc3OC(F)(F)F)CC2)sc1C(=O)c1c(F)cccc1F [Example R23]
- CDK4 % Inhibition at 0.03 μM ([1]; at 0.03 μM): 34%
- CDK2 % Inhibition at 0.03 μM ([2]; at 0.03 μM): −6%
- HCT-116 % Inhibition at 0.1 μM ([3]; HCT-116 cells, at 0.1 μM): 2%
- HCT-116 5 Inhibition at 0.25 μM ([3]; HCT-116 cells): 38

Compound: CN1CC[C@H](Oc2ccc(S(=O)(=O)N3CCC(Nc4nc(N)c(C(=O)c5c(F)cccc5F)s4)CC3)cn2)C1 [Example H28, (4-Amino-2-{1-[6-(1-methyl-pyrrolidin-3S-yloxy)-pyridine-3-sulfonyl]-piperidin-4-ylamino}-thiazol-5-yl)-(2,6-difluoro-phenyl)-methanone Hydrochloride]
- Ki [1]: 1 nM
- Ki [2]: 0.41 nM
- IC50 ([3]; first HCT-116 column (c4)): 49 nM
- IC50 ([3]; second HCT-116 column (c5)): 160 nM

Compound: CN1CCC(Oc2ccc(S(=O)(=O)N3CCC(Nc4nc(N)c(C(=O)c5c(F)cccc5F)s4)CC3)cn2)CC1 [Example H14, 1-(4-Amino-2-{1-[6-(1-methyl-piperidin-4-yloxy)-pyridine-3-sulfonyl]-piperidin-4-ylamino}-thiazol-5-yl)-1-(2,6-difluoro-phenyl)-methanone Hydrochloride]
- Ki [1]: 0.34 nM
- Ki [2]: 0.74 nM
- IC50 ([3]; first HCT-116 column (c4)): 40 nM
- IC50 ([3]; second HCT-116 column (c5)): 400 nM

Compound: Nc1nc(NC2CCN(C(=O)N3CCCC3)CC2)sc1C(=O)c1c(F)cccc1F [Example R81]
- CDK4 % Inhibition at 0.03 μM ([1]; at 0.03 μM): 29%
- CDK2 % Inhibition at 0.03 μM ([2]; at 0.03 μM): −10%
- HCT-116 % Inhibition at 0.1 μM ([3]; HCT-116 cells, at 0.1 μM): 13%
- HCT-116 5 Inhibition at 0.25 μM ([3]; HCT-116 cells): 43

Compound: Nc1nc(NC2CCN(S(=O)(=O)c3ccc(S(=O)(=O)c4ccccc4)s3)CC2)sc1C(=O)c1c(F)cccc1F [Example P42]
- CDK4 % Inhibition at 0.03 μM ([1]; 0.03 μM compound, Table 3): 62%
- CDK2 % Inhibition at 0.03 μM ([2]; 0.03 μM compound, Table 3): 55%
- HCT-116 % Inhibition at 0.1 μM [3, 5]: 3%
- HCT-116 % Inhibition at 0.25 μM ([3]; HCT-116, Table 3): 19%
